Patent US20230105667A1, “MESENCHYMAL STROMAL CELLS AND EXTRACELLULAR VESICLES FOR TREATING VIRAL INFECTIONS, INFLAMMATION, AND TISSUE FIBROSIS” (EXOSTEM BIOTEC LTD., priority 2020, published 2023)

Test system: Immortalized human bronchial epithelial (HBE) cells
Type: cell-based
Settings: HBE cells with S1 peptide; EVs, drugs alone or combined

SMILES	reduction in inflammation (TNFα expression)
CN(C)C(=N)N=C(N)N [metformin]	modest reduction in inflammation
C=C(C)[C@@H]1CCC(C)=C[C@H]1c1c(O)cc(CCCCC)cc1O [CBD, cannabidiol]	modest reduction in inflammation
